How the values were obtained:
[1] = tested on: Mycobacterium tuberculosis; assay: Antituberculosis activity against Mycobacterium tuberculosis H37Ra after 3 days by autoluminescent assay; type: functional, organism-based
[2] = tested on: Enterovirus; assay: Antiviral activity against EV71 infected in african green monkey Vero cells assessed as reduction in virus-induced cytopathic effect after 72 to 96 hrs by CCK8 assay; type: functional, organism-based; conditions: Enterovirus, 71, Vero
[3] = tested on: K562; assay: Cytotoxicity against human K562 cells assessed as cell viability after 72 hrs by CCK8 assay; type: functional, cell-based; conditions: K562, 72 h
[4] = tested on: MCF7; assay: Cytotoxicity against human MCF7 cells assessed as cell viability after 72 hrs by CCK8 assay; type: functional, cell-based; conditions: MCF7, 72 h
[5] = Cytotoxicity against human BGC823 cells assessed as cell viability after 72 hrs by CCK8 assay; type: functional, cell-based; conditions: BGC-823, 72 h
[6] = tested on: MOLT-4; assay: Cytotoxicity against human MOLT4 cells assessed as cell viability after 72 hrs by CCK8 assay; type: functional, cell-based; conditions: MOLT-4, 72 h
[7] = Antiviral activity against Influenza A virus A/Hong Kong/8/68 H3N2 infected in MDCK cells assessed as reduction in virus-induced cytopathic effect after 3 days by CCK8 assay; type: functional, cell-based, Influenza A virus (A/Hong Kong/8/1968([…])); conditions: 72 h
[8] = tested on: HeLa; assay: Cytotoxicity against human HeLa cells assessed as cell viability after 72 hrs by CCK8 assay; type: functional, cell-based
[9] = tested on: U-937; assay: Cytotoxicity against human U937 cells assessed as cell viability after 72 hrs by CCK8 assay; type: functional, cell-based; conditions: U-937, 72 h
[10] = tested on: HL-60; assay: Cytotoxicity against human HL60 cells assessed as cell viability after 72 hrs by CCK8 assay; type: functional, cell-based; conditions: HL-60, 72 h
[11] = tested on: NCI-H1975; assay: Cytotoxicity against human NCI-H1975 cells assessed as cell viability after 72 hrs by CCK8 assay; type: functional, cell-based; conditions: NCI-H1975, 72 h
[12] = tested on: A549; assay: Cytotoxicity against human A549 cells assessed as cell viability after 72 hrs by CCK8 assay; type: functional, cell-based; conditions: A549, 72 h
[13] = Cytotoxicity against human HuH7 cells assessed as cell viability after 72 hrs by CCK8 assay; type: functional, cell-based; conditions: Huh-7, 72 h

Structure (SMILES) | IC50 [1] | IC50 [2] [nM] | IC50 [3] [nM] | IC50 [4] [nM] | IC50 [5] [nM] | IC50 [6] [nM] | IC50 [7] [nM] | IC50 [8] [nM] | IC50 [9] [nM] | IC50 [10] [nM] | IC50 [11] [nM] | IC50 [12] [nM] | IC50 [13] [nM]
C[C@]1(COC(=O)c2ccc([N+](=O)[O-])cc2)CCC[C@@]2(C)[C@H]1[C@H](O)C=C1C(=O)OC[C@@]12O | Not Active | 9400 | 4330 | 4250 | 2320 | 2390 | 17000 | 6120 | 1950 | 2440 | 2080 | 2410 | 3280
C[C@]1(CO)CCC[C@@]2(C)[C@H]1[C@H](OC(=O)c1ccc([N+](=O)[O-])cc1)C=C1C(=O)OC[C@@]12O | Not Active | 50000 | 4760 | 6080 | 2780 | 2110 | 50000 | 6350 | 3970 | 2340 | 4630 | 2860 | 2350
CC(/C=C/C(=O)NO)=C\[C@@H](C)C(=O)c1ccc(N(C)C)cc1 [TRICHOSTATIN] | Not Active | 600 | 160 |  | 80 |  | 8 | 100 | 50 | 30 | 90 |  | 90

Source: ChEMBL document CHEMBL3580538, “Cytotoxic and antiviral nitrobenzoyl sesquiterpenoids from the marine-derived fungus Aspergillus ochraceus Jcma1F17” (Medchemcomm, 2014)
